Assay results reported in PubChem BioAssay (NCI).
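Cells were grown in 96-well plates and exposed to each compound for 48 hours at five concentrations; endpoints were interpolated linearly between bracketing concentrations, or set to the highest concentration if not reached. Here, GI50 denotes the concentration required for 50% inhibition of growth. TGI: total growth inhibition.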

Assays:
Assay in all cases: DTP human tumour cell line panel, 48 h
SW-620 colon = test system: SW-620 colon
HL-60(TB) leukemia = test system: HL-60(TB) leukemia
SNB-19 CNS = test system: SNB-19 CNS
UACC-62 melanoma = test system: UACC-62 melanoma
SF-295 CNS = test system: SF-295 CNS
OVCAR-8 ovarian = test system: OVCAR-8 ovarian
SK-MEL-5 melanoma = test system: SK-MEL-5 melanoma
OVCAR-5 ovarian = test system: OVCAR-5 ovarian
HCT-15 colon = test system: HCT-15 colon
OVCAR-4 ovarian = test system: OVCAR-4 ovarian

| SMILES | TGI (SW-620 colon) | TGI (HL-60(TB) leukemia) | TGI (SNB-19 CNS) | TGI (UACC-62 melanoma) | TGI (SF-295 CNS) | TGI (OVCAR-8 ovarian) | TGI (SK-MEL-5 melanoma) | TGI (OVCAR-5 ovarian) | TGI (HCT-15 colon) | TGI (OVCAR-4 ovarian) | GI50 (SW-620 colon) | GI50 (HL-60(TB) leukemia) | GI50 (SNB-19 CNS) | GI50 (UACC-62 melanoma) | GI50 (OVCAR-4 ovarian) | GI50 (SF-295 CNS) | GI50 (OVCAR-8 ovarian) | GI50 (SK-MEL-5 melanoma) | GI50 (OVCAR-5 ovarian) | GI50 (HCT-15 colon) |
| --- | --- | --- | --- | --- | --- | --- | --- | --- | --- | --- | --- | --- | --- | --- | --- | --- | --- | --- | --- | --- |
| CC(C)(C)NCC(COc1ccc([N+](=O)[O-])cc1)OP(c1ccccc1)c1ccccc1 (stereo not given) | > 100 µM | 47.3 µM | > 100 µM | > 100 µM | > 100 µM | > 100 µM | 37.3 µM | > 100 µM | > 100 µM | – | – | – | – | – | – | – | – | – | – | – |
| O=C1[C@H]2ON(c3ccccc3)C(c3ccco3)[C@H]2C(=O)N1c1ccc(Cc2ccc(N3C(=O)[C@@H]4ON(c5ccccc5)C(c5ccco5)[C@@H]4C3=O)cc2)cc1 (stereo not given in full) | > 100 µM | > 100 µM | – | > 100 µM | > 100 µM | – | > 100 µM | > 100 µM | > 100 µM | > 100 µM | – | – | – | – | – | – | – | – | – | – |
| c1cnn2ncc(-c3ccnc(Nc4ccc5c(c4)OCCO5)n3)c2c1 | 0.383 µM | 0.155 µM | > 25 µM | 0.113 µM | 0.987 µM | > 25 µM | 0.632 µM | > 25 µM | > 25 µM | > 25 µM | 0.0786 µM | 0.0423 µM | 0.0882 µM | 0.0475 µM | 0.269 µM | 0.0799 µM | 0.0687 µM | 0.0651 µM | 0.0866 µM | 0.0863 µM |
| COc1cc(CNc2nc3ccc(C(F)(F)F)cc3nc2-c2ccccc2)cc(OC)c1OC | > 100 µM | 55.9 µM | > 100 µM | > 100 µM | > 100 µM | > 100 µM | 87 µM | > 100 µM | > 100 µM | > 100 µM | – | – | – | – | – | – | – | – | – | – |
| COc1ccc(-c2c(C3=NCCCN3)nnn2-c2ccc([N+](=O)[O-])cc2)cc1 | > 100 µM | > 100 µM | > 100 µM | > 100 µM | > 100 µM | > 100 µM | > 100 µM | > 100 µM | > 100 µM | > 100 µM | – | – | – | – | – | – | – | – | – | – |
| CC1OC(c2ccc3c(c2O)C(=O)C2=C(C3=O)C3(O)C(=O)CC(C)(O)CC3(O)C=C2)CC(O)C1O (stereo not given) | 21.7 µM | 4.07 µM | 58.8 µM | 30.4 µM | 34.2 µM | 51.5 µM | 22.9 µM | 31.8 µM | 29.7 µM | 27.2 µM | – | – | – | – | – | – | – | – | – | – |
| OCc1ccc(N2CCOCC2)cc1Cl | > 100 µM | > 100 µM | > 100 µM | > 91.2 µM | > 100 µM | > 100 µM | > 100 µM | 10.6 µM | > 100 µM | > 100 µM | > 100 µM | > 100 µM | > 100 µM | 14.4 µM | 55.6 µM | 28.2 µM | > 100 µM | > 91.2 µM | 2.42 µM | > 100 µM |
| O=C1/C(=C/c2ccc([N+](=O)[O-])cc2)COc2ccc(O)cc21 | 3.3 µM | 7.92 µM | 30.8 µM | 34.5 µM | > 100 µM | > 100 µM | 53.6 µM | 33.2 µM | 7.61 µM | > 100 µM | 1.5 µM | 2.48 µM | 4.29 µM | 9.02 µM | 11.3 µM | > 100 µM | 5.88 µM | 12.1 µM | 5.97 µM | 2.24 µM |
| C=C1C2Oc3ccccc3C1N(c1ccccc1)O2 (stereo not given) | > 100 µM | > 100 µM | > 100 µM | – | 62.7 µM | 33.2 µM | – | > 100 µM | > 100 µM | 75.3 µM | – | – | – | – | – | – | – | – | – | – |
| CCCCCCCCCCCCCCCCCCOCC(COCCOCC[N+]1(CCCCCC(=O)[O-])CCCC1)Oc1ncccn1 (stereo not given) | 19.2 µM | 2.6 µM | 16.5 µM | 14.2 µM | 27.2 µM | 15.9 µM | 15.2 µM | 13.9 µM | 25.5 µM | 4.22 µM | – | – | – | – | – | – | – | – | – | – |
| Cc1ccc(C)c(N2C(=O)C(=O)C(c3nc4ccccc4s3)C(=Nc3cccc4c(=O)[nH][nH]c(=O)c34)C2=O)c1 (stereo not given) | > 100 µM | > 100 µM | > 100 µM | > 100 µM | > 100 µM | > 100 µM | > 100 µM | > 100 µM | > 100 µM | > 100 µM | – | – | – | – | – | – | – | – | – | – |
| N#Cc1c(-c2ccco2)cc(-c2ccccc2)[nH]c1=O | > 100 µM | > 100 µM | > 100 µM | > 100 µM | > 100 µM | > 100 µM | > 100 µM | > 100 µM | > 100 µM | > 100 µM | – | – | – | – | – | – | – | – | – | – |
| COc1ccc(-c2cnoc2-c2cc(OC)c3c(c2)OCCO3)cc1 | > 100 µM | 0.975 µM | > 100 µM | > 100 µM | 22.3 µM | > 59.1 µM | 0.592 µM | > 86.7 µM | 28.1 µM | > 100 µM | 0.0302 µM | 0.0289 µM | 0.0525 µM | < 0.015 µM | 14 µM | < 0.0108 µM | 0.0524 µM | 0.0222 µM | 0.0617 µM | 0.0258 µM |
| c1ccc2[nH]c(CNc3ccc(C4C[Se]N=N4)cc3)nc2c1 (stereo not given) | > 100 µM | 77.7 µM | > 100 µM | 99 µM | 92.3 µM | > 100 µM | 46.4 µM | > 100 µM | > 100 µM | > 100 µM | – | – | – | – | – | – | – | – | – | – |
| Cc1c(C)c(CC(=O)N2CC2)c(C)c(C)c1CC(=O)N1CC1 | > 57.2 µM | 10.3 µM | > 100 µM | 17.2 µM | 60.5 µM | > 49.6 µM | – | > 83.8 µM | > 58.2 µM | 44.8 µM | – | – | – | – | – | – | – | – | – | – |
| O=C(O)c1ccccc1C(=O)c1ccc2c(c1)Cc1ccccc1-2 | > 100 µM | – | > 100 µM | > 100 µM | > 100 µM | > 100 µM | > 100 µM | > 100 µM | > 100 µM | > 100 µM | – | – | – | – | – | – | – | – | – | – |
| CCCCCCCCCCCCCC[n+]1cccc(C(N)=O)c1 | 6.72 µM | – | 2.4 µM | 3.48 µM | 4.23 µM | 6.22 µM | – | 6.25 µM | 58.3 µM | 19.6 µM | 1.98 µM | – | 1.01 µM | 1.15 µM | 3.73 µM | 1.69 µM | 2.12 µM | – | 1.62 µM | 13.5 µM |
| Clc1ccc2c(c1)N(c1ncnc3ccc(-c4cnc5[nH]ncc5c4)cc13)CC2 | – | > 100 µM | > 100 µM | > 100 µM | > 100 µM | > 100 µM | – | > 100 µM | > 100 µM | > 100 µM | – | 0.411 µM | 1.46 µM | 0.46 µM | 0.747 µM | 0.632 µM | 0.966 µM | – | 0.396 µM | 0.392 µM |
